Data published in PMC10491595, “Activation of the integrated stress response by inhibitors of its kinases” (Nature Communications, 2023).

Tests used:
GCN2 [1] = target: T1, GCN2 (Homo sapiens, UniProt Q9P2K8); assay: in vitro kinase assay (Gaussian activation then inhibition); thermal shift of kinase domain; competition with A92; assay type: biochemical
T1 construct: gene EIF2AK4; GST-GCN2 fragment (192-1024)
T1 sequence (Q9P2K8 192-1024): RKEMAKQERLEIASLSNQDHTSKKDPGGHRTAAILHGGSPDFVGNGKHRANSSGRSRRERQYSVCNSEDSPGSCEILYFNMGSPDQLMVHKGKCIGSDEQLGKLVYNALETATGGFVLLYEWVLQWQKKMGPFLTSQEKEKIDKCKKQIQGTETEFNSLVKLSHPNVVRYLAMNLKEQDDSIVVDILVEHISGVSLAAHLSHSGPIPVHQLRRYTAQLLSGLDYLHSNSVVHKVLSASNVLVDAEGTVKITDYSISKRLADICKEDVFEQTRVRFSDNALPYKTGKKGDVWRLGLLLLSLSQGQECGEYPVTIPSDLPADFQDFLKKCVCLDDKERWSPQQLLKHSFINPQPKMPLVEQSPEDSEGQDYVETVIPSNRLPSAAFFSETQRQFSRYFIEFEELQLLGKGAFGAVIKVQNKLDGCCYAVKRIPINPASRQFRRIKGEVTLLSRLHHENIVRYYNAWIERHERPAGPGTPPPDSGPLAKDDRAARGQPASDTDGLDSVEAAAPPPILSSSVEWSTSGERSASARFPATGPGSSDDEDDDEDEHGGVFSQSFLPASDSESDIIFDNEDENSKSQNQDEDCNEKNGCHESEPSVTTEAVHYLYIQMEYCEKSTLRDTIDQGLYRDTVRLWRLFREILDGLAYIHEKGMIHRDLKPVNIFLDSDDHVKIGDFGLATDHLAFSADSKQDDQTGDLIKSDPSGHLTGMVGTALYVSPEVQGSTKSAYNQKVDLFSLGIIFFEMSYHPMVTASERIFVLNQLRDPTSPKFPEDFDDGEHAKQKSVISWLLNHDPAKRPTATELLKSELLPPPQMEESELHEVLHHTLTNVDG

PERK = target: T2, PERK (Homo sapiens, UniProt Q9NZJ5); assay: PERK activation (mobility shift) immunoblot in tunicamycin-treated HeLa cells; assay type: cell-based
T2 construct: gene EIF2AK3
T2 sequence (Q9NZJ5 30-1116): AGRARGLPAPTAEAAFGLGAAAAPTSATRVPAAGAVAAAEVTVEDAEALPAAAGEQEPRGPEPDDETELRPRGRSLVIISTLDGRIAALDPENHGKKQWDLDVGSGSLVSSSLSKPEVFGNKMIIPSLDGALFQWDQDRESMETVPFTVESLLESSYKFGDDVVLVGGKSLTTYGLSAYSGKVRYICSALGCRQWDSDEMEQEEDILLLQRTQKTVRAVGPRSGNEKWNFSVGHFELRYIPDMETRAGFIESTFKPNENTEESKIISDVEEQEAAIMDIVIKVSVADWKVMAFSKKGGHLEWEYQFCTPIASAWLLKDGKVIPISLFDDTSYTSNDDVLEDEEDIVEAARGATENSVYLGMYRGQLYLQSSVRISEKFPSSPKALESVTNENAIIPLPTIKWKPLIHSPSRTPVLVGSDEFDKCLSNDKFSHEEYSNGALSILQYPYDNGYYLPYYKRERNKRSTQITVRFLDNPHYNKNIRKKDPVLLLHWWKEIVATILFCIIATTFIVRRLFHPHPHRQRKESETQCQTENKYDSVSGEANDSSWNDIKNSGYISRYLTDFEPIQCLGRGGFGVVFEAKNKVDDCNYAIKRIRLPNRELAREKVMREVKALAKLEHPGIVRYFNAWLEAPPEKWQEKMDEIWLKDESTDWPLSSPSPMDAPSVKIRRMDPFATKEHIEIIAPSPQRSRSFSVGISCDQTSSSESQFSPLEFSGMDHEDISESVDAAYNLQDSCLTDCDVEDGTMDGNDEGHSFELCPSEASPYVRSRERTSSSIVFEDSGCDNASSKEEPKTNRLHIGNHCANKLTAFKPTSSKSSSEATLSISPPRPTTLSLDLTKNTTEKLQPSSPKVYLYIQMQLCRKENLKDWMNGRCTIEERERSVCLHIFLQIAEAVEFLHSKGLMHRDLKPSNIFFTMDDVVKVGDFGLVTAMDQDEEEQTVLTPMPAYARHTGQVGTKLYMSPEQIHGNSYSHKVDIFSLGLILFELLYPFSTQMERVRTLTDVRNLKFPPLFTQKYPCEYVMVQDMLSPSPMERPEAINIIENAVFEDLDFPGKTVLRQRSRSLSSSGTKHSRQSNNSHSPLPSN

GCN2 [2] = target: T1, GCN2; assay: in vitro kinase assay; assay type: biochemical
[3] = target: the molecule itself; assay: SEC-MALS; GST-GCN2 fragment at ~1.7 mg/ml, incubated 20 min at 30 °C with DMSO or 50 µM GSK'157; Superdex 200 Increase 10/300 GL, 10 mM HEPES, 150 mM NaCl, 1 mM TCEP with DMSO or 50 µM GSK'157; same result in both conditions

## Cc1cccc(CC(=O)N2CCc3c2ccc(-c2cn(C)c4ncnc(N)c24)c3F)n1 [GSK'157, GSK2656157]
GCN2 [1]
  in vitro kinase assay (Gaussian activation then inhibition); thermal shift of ki: ~ 5 μM
PERK
  PERK activation (mobility shift) immunoblot in tunicamycin-treated HeLa cells: 0.02 to 10 µM

## Nc1ncnc2c1ncn2[C@@H]1O[C@H](CO[P@](=O)(O)O[P@](=O)(O)NP(=O)(O)O)[C@@H](O)[C@H]1O [AMP-PNP]
GCN2 [2]
  in vitro kinase assay: ~ 250 μM

B1: in-house recombinant GST-GCN2 fragment (192-1024) (domain or fragment, UniProt Q9P2K8 192-1024, looked up)
chain: RKEMAKQERLEIASLSNQDHTSKKDPGGHRTAAILHGGSPDFVGNGKHRANSSGRSRRERQYSVCNSEDSPGSCEILYFNMGSPDQLMVHKGKCIGSDEQLGKLVYNALETATGGFVLLYEWVLQWQKKMGPFLTSQEKEKIDKCKKQIQGTETEFNSLVKLSHPNVVRYLAMNLKEQDDSIVVDILVEHISGVSLAAHLSHSGPIPVHQLRRYTAQLLSGLDYLHSNSVVHKVLSASNVLVDAEGTVKITDYSISKRLADICKEDVFEQTRVRFSDNALPYKTGKKGDVWRLGLLLLSLSQGQECGEYPVTIPSDLPADFQDFLKKCVCLDDKERWSPQQLLKHSFINPQPKMPLVEQSPEDSEGQDYVETVIPSNRLPSAAFFSETQRQFSRYFIEFEELQLLGKGAFGAVIKVQNKLDGCCYAVKRIPINPASRQFRRIKGEVTLLSRLHHENIVRYYNAWIERHERPAGPGTPPPDSGPLAKDDRAARGQPASDTDGLDSVEAAAPPPILSSSVEWSTSGERSASARFPATGPGSSDDEDDDEDEHGGVFSQSFLPASDSESDIIFDNEDENSKSQNQDEDCNEKNGCHESEPSVTTEAVHYLYIQMEYCEKSTLRDTIDQGLYRDTVRLWRLFREILDGLAYIHEKGMIHRDLKPVNIFLDSDDHVKIGDFGLATDHLAFSADSKQDDQTGDLIKSDPSGHLTGMVGTALYVSPEVQGSTKSAYNQKVDLFSLGIIFFEMSYHPMVTASERIFVLNQLRDPTSPKFPEDFDDGEHAKQKSVISWLLNHDPAKRPTATELLKSELLPPPQMEESELHEVLHHTLTNVDG
notes: GCN2 (eIF2alpha kinase 4), residues 192-1024; MW of the GST fusion ~135 kDa as printed; eluted with glutathione, no cleavage of GST is described; GST itself is known to dimerise, so the dimer may owe to the tag (my surmise); also called recombinant GCN2; source: Sf9 (baculovirus), purified (Glutathione Sepharose 4B, Superdex 200); not shown: GST, N-terminal, kept
[3]
  stoichiometry N: 2
